# Measured values from patent US20130345257A1, “COMPOSITION FOR LUPUS NEPHRITIS AND METHODS OF MAKING AND USING THE SAME” (The Regents of the University of California, priority 2012, published 2013).
# Entries after “also recorded” stand apart in the source; their conditions may differ.
# Key:
# Type in all cases: in vivo, mouse
# [1] = system: BWF1 mice with high proteinuria (PU^hi); test: Therapeutic treatment of BWF1 mice after clinical nephritis / high proteinuria (PU^hi)
# Method: (§1) Therapeutic Groups: a low proteinuria group)(PU^lo) consisted of mice with IgG anti-dsDNA detectable in serum and proteinuria ≦100 mg/dL, and a high proteinuria group (PU^hi) had proteinuria ≧300 mg/dL.
# (§2) Proteinuria was evaluated weekly using Albustix (Siemens), serum creatinine using a commercial kit (Arbor Assays) and anti-dsDNA IgG antibodies by ELISA as described previously (10). See, e.g., FIGS. 1 and 2.
# (§3) Kidney specimens of BWF1 mice (37 weeks of age in the prevention group or 7 and 11 weeks after institution of early or late therapies) were embedded in OCT compound and snap frozen. 4-5 μm an sections were air-dried, fixed with cold acetone and incubated with blocking buffer (anti-CD16/CD32 (1/50), 2% normal goat or rat serum, 2% BSA).
# (§4) Histological analysis of glomerular pathology was done by an investigator blinded to treatment group and included acute inflammatory features (endocapillary hypercellularity, mesangial hypercellularity, cellular necrosis, cellular crescents, and interstitial inflammation), and chronic features (global glomerulosclerosis (GS), focal segmental glomerulosclerosis (FSGS), and interstitial fibrosis or tubular atrophy (IF/TA)). […] The weighted total score of the clinical features was based on this formula: [endocapillary hypercellularity+mesengial hypercellularity+(cellular necrosis*2)+(cellular crescents*2)+interstitial inflammation)/5]+(GS+FSGS+IFTA)/3, with maximum score 5.2. A minimum of 25 glomeruli, of at least 10 mice per group, were scored. Scores from each individual mouse were added and averaged to yield the glomerulonephritis score.
# [2] = system: leukocyte subsets present in kidney; test: Leukocyte subsets in kidney of treated BWF1 mice by flow cytometry; design: Frequency of cells ± SEM: CD11c^+CD11b− (DC) / Frequency of cells ± SEM: CD11b^+Ly6C^+Ly6G− / Frequency of cells ± SEM: CD11b^+Ly6C^+Ly6G+ / Frequency of cells ± SEM: CD4+ / Frequency of cells ± SEM: CD8+ / Frequency of cells ± SEM: CD11b^+MDSC−(Mφ) / Frequency of cells ± SEM: CD11c^+CD11b+(DC): unit not given here; conditions: kidney, LAQ 25 mg/kg, MMF 100 mg/kg; for Frequency of cells ± SEM: CD19+: in % (unit assumed)
# Method: (§5) Single cell suspensions of splenocytes or kidney cells were prepared using cell strainers (Fisher), followed by red blood cell lysis. Kidney lymphocytes were separated from connective tissue by centrifugation (15 minutes at 400g) in 30% Percoll (GE Healthcare). CD4^+CD25^− cells from spleen and kidney were isolated using the CD4^+CD25^+ regulatory T cell isolation kit according to manufacturer's protocol (Miltenyi). CD11b+ cells were isolated using EasySep mouse CD11b positive selection kit (StemCell Technologies), surface stained for Ly6C and Ly6G prior to sorting myeloid-derived suppressor cells (MDSC) using FACSAria II. Populations were >95% pure by FACS analysis.
# (§6) Single-cell suspensions from spleen or kidneys were stained for extracellular markers for 20 min at 4° C. in PBS/1% FBS. Intracellular staining for Foxp3 and cytokines was performed using the Foxp3 Fixation/Permeabilization kit according to the manufacturer's protocol (eBioscience). Cells were acquired on a FACS LSR II (BD) and data was analyzed using Flowjo (Tree Star).
# spleen cell subsets [3] = test: Spleen cell subsets of treated BWF1 mice by flow cytometry
# From the text: Water-gavaged mice constituted the control untreated animals. The spleen cell subsets were identified by the expression of cell surface markers at age 32 weeks as follow: iTregs; nTregs; MΦ: CD11b^−CD103^−; MΦ^2: CD11b^+Ly6C^hiGr-1^−; MΦ^3: CD11b^+Ly6C^intGr-1^−; Gr-1: CD11b ly6C^intGr-1^+; DC: CD11c^+CD103^+; T2: CD19^+CD23^+CD21^+IgM^hi; MZ: CD19^+CD23^−CD21^+IgM^hi. Abbreviations: iTregs=induced T regulatory cells (Tregs). nTregs=natural Tregs. T2=transitional 2 B cells. MZ=marginal zone B cells. MΦ=macrophages. Gr1=granulocytes. Values are mean±SEM. The statistical significance between the groups was determined by analysis of variance (-A-NOVA). ^AP<0.05 versus untreated controls.
# as §5, §6
# [4] = system: BWF1 mice with anti-dsDNA and low proteinuria (PU^lo); test: Therapeutic treatment of BWF1 mice with anti-dsDNA and low proteinuria (PU^lo); conditions: LAQ 25 mg/kg, MMF 100 mg/kg
# Method: as §1, §2, §3, §4
# spleen cell subsets [5] = test: Spleen cell subsets of treated BWF1 mice by flow cytometry; conditions: for Frequency of cells ± SEM: CD4+ / Frequency of cells ± SEM: CD8+ / Frequency of cells ± SEM: CD11b^+Ly6C^+Ly6G+ / Frequency of cells ± SEM: CD11b^+Ly6C^+Ly6G− / Frequency of cells ± SEM: CD11b^+MDSC−(Mφ) / Frequency of cells ± SEM: CD11c^+CD11b+(DC) / Frequency of cells ± SEM: CD11c^+CD11b− (DC) / Frequency of cells ± SEM: CD4^+CD25^+Foxp3^+ / Frequency of cells ± SEM: CD19+: spleen, LAQ 25 mg/kg, MMF 100 mg/kg
# [6] = Preventive, 25 weeks after treatment
# [7] = Therapeutic (PU^lo), 10 wks after initiation of therapy
# [8] = spleen at age 32 weeks, oral gavage from age 11 weeks, LAQ 25 mg/kg 3 days per week, MMF 100 mg/kg 5 days/week
# [9] = spleen at age 32 weeks, oral gavage from age 11 weeks, LAQ 25 mg/kg 3 days per week, MMF 100 mg/kg 5 days/week, in % (unit assumed)
# [10] = Preventive, 25 weeks after treatment, in % (unit assumed)
# [11] = Therapeutic (PU^lo), 10 wks after initiation of therapy, in % (unit assumed)
smiles,measurement,setting,value
"COc1c(C)c2c(c(O)c1C/C=C(\C)CCC(=O)OCCN1CCOCC1)C(=O)OC2 [MMF, mycophenolate mofetil, reference compound]",Animals with proteinuria reduced to levels below 300 mg/dL,"[1]; PU^hi arm, after 8 weeks of treatment, LAQ 25 mg/kg, MMF 100 mg/kg",approximately 25%
same,FSGS and IF/TA histology scores,"[1]; PU^hi arm, compared to controls",significantly lower
same,Survival,"[1]; treated after clinical nephritis / PU^hi, LAQ 25 mg/kg 3 times a week, MMF 100 mg/kg 5 times a week, vs water",not observed
same,Frequency of cells ± SEM: CD4+,[2]; [6],19.4 ± 0.4
same,Frequency of cells ± SEM: CD8+,[2]; [6],8.8 ± 0.1
same,Frequency of cells ± SEM: CD11b^+Ly6C^+Ly6G+,[2]; [6],1.6 ± 0.2
same,Frequency of cells ± SEM: CD11b^+Ly6C^+Ly6G−,[2]; [6],22.9 ± 0.8
same,Frequency of cells ± SEM: CD11b^+MDSC−(Mφ),[2]; [6],49.8 ± 0.7
same,Frequency of cells ± SEM: CD11c^+CD11b+(DC),[2]; [6],1.0 ± 0.1
same,Frequency of cells ± SEM: CD11c^+CD11b− (DC),[2]; [6],4.4 ± 0.3
same,Frequency of cells ± SEM: CD19+,[2]; [6],2.3 ± 0.2
same,Frequency of cells ± SEM: CD4+,[2]; [7],1.0 ± 0.1
same,Frequency of cells ± SEM: CD8+,[2]; [7],6.6 ± 0.2
same,Frequency of cells ± SEM: CD11b^+Ly6C^+Ly6G+,[2]; [7],1.9 ± 0.3
same,Frequency of cells ± SEM: CD11b^+Ly6C^+Ly6G−,[2]; [7],22.4 ± 0.3
same,Frequency of cells ± SEM: CD11b^+MDSC−(Mφ),[2]; [7],45.7 ± 0.9
same,Frequency of cells ± SEM: CD11c^+CD11b+(DC),[2]; [7],0.6 ± 0.0
same,Frequency of cells ± SEM: CD11c^+CD11b− (DC),[2]; [7],1.3 ± 0.1
same,Frequency of cells ± SEM: CD19+,[2]; [7],7.2 ± 0.4
same,Percentage of CD8^+ cells in spleen,spleen cell subsets [3]; compared to the control mice,decreased; also recorded: reduced
same,Frequency of cells ± SEM: CD11b^+Ly6C^hiGr-1^− (MΦ^2),spleen cell subsets [3]; [8],11.81 ± 1.58
same,Frequency of cells ± SEM: CD11b^+Ly6C^intGr-1^+ (Gr-1),spleen cell subsets [3]; [8],25.01 ± 5.32
same,Frequency of cells ± SEM: CD 19^+,spleen cell subsets [3]; [9],57.38 ± 3.89
same,Frequency of cells ± SEM: CD19^+CD23^−CD21^+IgM^hi (MZ),spleen cell subsets [3]; [9],3.78 ± 0.99
same,Percentage of CD4^+ T cells in spleen,spleen cell subsets [3]; vs control mice,decreased; also recorded: significantly lower percentage
same,Anti-dsDNA,[4]; PU^lo arm,not significantly decreased
same,Increase of proteinuria,[4]; PU^lo arm,prevented increased proteinuria
same,Rise in serum creatinine,[4]; PU^lo arm,prevented
same,Survival,[4]; PU^lo arm,significantly prolonged survival
same,"Reduction of endo-capillary hypercellularity, interstitial inflammation, and focal segmental glomerulosclerosis",[4]; PU^lo mice,equally effective
same,Numbers of MM (splenic PBMC),"spleen cell subsets [5]; mouse, in vivo",not
same,Frequency of cells ± SEM: CD11b^+CD103^− (MΦ^1),spleen cell subsets [5]; [8],2.26 ± 0.25^A
same,Frequency of cells ± SEM: CD11b^+Ly6C^intGr-1^− (MΦ^3),spleen cell subsets [5]; [8],23.44 ± 1.89
same,Frequency of cells ± SEM: CD11c^+CD103^+ (DC),spleen cell subsets [5]; [8],0.48 ± 0.04^A
same,Frequency of cells ± SEM: CD19^+CD23^+CD21^+IgM^hi (T2),spleen cell subsets [5]; [9],36.56 ± 4.92
same,Frequency of cells ± SEM: CD4+,spleen cell subsets [5]; [6],26.2 ± 1.3
same,Frequency of cells ± SEM: CD8+,spleen cell subsets [5]; [6],12.4 ± 0.9
same,Frequency of cells ± SEM: CD11b^+Ly6C^+Ly6G+,spleen cell subsets [5]; [6],15. ± 1.6
same,Frequency of cells ± SEM: CD11b^+Ly6C^+Ly6G−,spleen cell subsets [5]; [6],33.4 ± 1.8
same,Frequency of cells ± SEM: CD11b^+MDSC−(Mφ),spleen cell subsets [5]; [6],59.3 ± 2.3
same,Frequency of cells ± SEM: CD11c^+CD11b+(DC),spleen cell subsets [5]; [6],1.0 ± 0.1
same,Frequency of cells ± SEM: CD11c^+CD11b− (DC),spleen cell subsets [5]; [6],4.4 ± 0.3
same,Frequency of cells ± SEM: CD4^+CD25^+Foxp3^+,spleen cell subsets [5]; [10],7.9 ± 0.4
same,Frequency of cells ± SEM: CD19+,spleen cell subsets [5]; [10],57.4 ± 3.9
same,Frequency of cells ± SEM: CD4+,spleen cell subsets [5]; [7],20.1 ± 0.7
same,Frequency of cells ± SEM: CD8+,spleen cell subsets [5]; [7],13.5 ± 2.1
same,Frequency of cells ± SEM: CD11b^+Ly6C^+Ly6G+,spleen cell subsets [5]; [7],17.5 ± 2.4
same,Frequency of cells ± SEM: CD11b^+Ly6C^+Ly6G−,spleen cell subsets [5]; [7],30.4 ± 2.7
same,Frequency of cells ± SEM: CD11b^+MDSC−(Mφ),spleen cell subsets [5]; [7],40.5 ± 3.1
same,Frequency of cells ± SEM: CD11c^+CD11b+(DC),spleen cell subsets [5]; [7],0.9 ± 0.2
same,Frequency of cells ± SEM: CD11c^+CD11b− (DC),spleen cell subsets [5]; [7],4.1 ± 0.7
same,Frequency of cells ± SEM: CD4^+CD25^+Foxp3^+,spleen cell subsets [5]; [11],3.2 ± 0.8
same,Frequency of cells ± SEM: CD19+,spleen cell subsets [5]; [11],45.4 ± 3.3
